# From US20100120662A1, “Glucose uptake modulator and method for treating diabetes or diabetic complications” (POSTECH Foundation, priority 2005, published 2010)
# Tests used:
# [1] = tested on: STZ-treated insulin deficient ICR male mice; assay: Acute glucose lowering in streptozotocin (STZ)-treated insulin deficient ICR mice; type: in vivo, mouse; details: 30 μmol/kg i.v. LPC
# Procedure: (§1) Animals. Male ICR mice were purchased from hyochang science (ROK). C57BLKSJ-db/db mice were purchased from SLC (Japan). After intravenous injection of LPC, blood glucose was measured regularly with a portable glucose meter (Gluco-Dr, ROK) after tail snipping. For measurement of serum insulin, blood samples of mice were determined with the insulin-RIA Kit (LINCO, Missouri). Insulin deficient mice were induced in male ICR mice by two consecutive daily intraperitoneal injection of STZ (200 mg/kg) dissolved in sodium citrate (pH 5.5). On the third day after the last STZ injection, acute glucose lowering effect was analyzed after intravenous injection of vehicle, LPC or insulin as described above.
# (§2) Eight-week-old male mice were intravenously injected with PBS, insulin, LPC, or LPE. Blood glucose was monitored after dosing (0 to 120 min). […] All animals had free access to water. Animal care was in accordance with institutional guidelines. All data are shown as means±SE (n=5-6).*P<0.05.
# C2C12 muscle cells = assay: Glucose uptake in C2C12 muscle cells (LPC); type: cell-based; details: data not shown
# male ICR mice [2] = assay: Serum insulin level in mice after single intravenous injection; type: in vivo, mouse
# Procedure: as §1, §2
# GLUT4 = GLUT4 translocation to the plasma membrane in 3T3-L1 adipocytes; type: cell-based; details: 20 μM, 10 min, plasma membrane fraction
# Procedure: Membrane fractionation of adipocytes. For obtaining total membranes (TM) from 3T3-L1 adipocytes, cells were collected into 10 ml of ice-cold HES buffer (250 mM sucrose, 1 mM EDTA, 1 mM phenylmethylsulfonyl fluoride [PMSF], 1 μM pepstatin, 1 μM aprotinin, 1 μM leupeptin, and 20 mM HEPES, pH 7.4) and subsequently homogenized with 30 strokes in a glass Dounce homogenizer at 4° C. After centrifugation at 1,000 g for 5 min at 4° C. to remove unbroken cells, the supernatant was then centrifugated at 212,000 g for 90 min at 4° C. to yield a pellet of total cellular membranes. To obtain the plasma membrane (PM) subcellular fraction from 3T3-L1 adipocytes, differential ultracentrifugation was used as described previously (Perrini, S., et al., Diabetes 53, pp. 41-52, 2004).
# Immunoblotting. For preparing total cell lysates, 3T3-L1 adipocytes were washed with Ca^2+/Mg^2+-free PBS and then lysed in the lysis buffer (50 mM HEPES, pH 7.2, 150 mM NaCl, 50 mM NaF, 1 mM Na3VO4, 10% glycerol, 1% Triton X-100). The lysates were centrifuged at 15,000 rpm for 15 min at 4° C. […]
# FIGS. 3A and 3B show LPC stimulates GLUT4 translocation in 3T3-L1 adipocytes. […] In each experiment, the relative increase or decrease in the integrated density value (IDV) of GLUT4 after stimulation with compounds is calculated. B) Quantitation of relative increases is depicted. […]
# 3T3-L1 adipocytes [3] = assay: [14C] 2-deoxy-D-glucose uptake in 3T3-L1 adipocytes; type: cell-based; details: for stimulation of glucose uptake: equimolar 20 μM, 10 min
# Procedure: Cell culture: 3T3-L1 fibroblasts were grown to confluence in DMEM containing a high glucose concentration, 10% fetal bovine serum, 50 U of penicillin per ml, and 50 ug of streptomycin per ml and maintained in a 5% CO2 humidified atmosphere at 37° C. 3T3-L1 was induced to differentiate into adipocytes, as described previously (van den Berghe, N., et al., Mol Cell Biol 14, pp. 2372-2377, 1994).
# Glucose uptake measurement. For measuring glucose uptake in 3T3-L1 adipocytes, cells were grown in serum-free DMEM for 16 h and then incubated in the absence or presence of insulin or lysophospholipids for the indicated times at 37° C. Uptake was measured by adding 1 μCi of [^14C] 2-deoxy-D-glucose and 3 mM 2-deoxy-D-glucose. After 10 min, the assay was terminated by two quick washes with ice-cold PBS. Cells were lysed in 0:5 ml of lysis buffer containing 0.5 N NaOH and 0.1% SDS. The cell lysates were used for liquid scintillation counting and nonspecific uptake was assayed in the presence of 10 μM cytochalasin B (van den Berghe, N., et al., Mol Cell Biol 14, pp. 2372-2377, 1994).
# FIG. 2A to 2D show the effects of LPC on the glucose uptake in 3T3-L1 adipocytes. […] After these treatments, [^14C] 2-deoxy-D-glucose uptake was measured for 10 min as described in Material Methods. […] FIGS. 2C and 2D show relative [^14C] 2-deoxy-D-glucose uptake in 3T3-L1 adipocytes incubated in the absence (control) or presence of equimolar concentrations (20 μM) of myristoyl lysophosphatidylcholine (14:0 LPC), palmytoyl lysophosphatidylcholine (16:0 LPC), stearoyl lysophosphatidylcholine (18:0 LPC), palmytoyl lysophsophatidylethanolamine (16:0 LPE), palmytoyl lyso-phosphatidylinositol (16:0 LPI), palmytoyl lysophosphatidylglycerol (16:0 LPG) for 10 min. Values are mean±SE of three independent experiments performed in triplicate. *P<0.05 vs. basal.
# male ICR mice [4] = assay: Acute blood glucose lowering in normal ICR mice after intravenous lysophospholipid; type: in vivo, mouse
# Procedure: as §1, §2
# C57BLKSJ-db/db mice = assay: Acute glucose lowering in insulin-resistant obese db/db mice; type: in vivo, mouse; details: injection of LPC
# Procedure: as §1, §2
# 3T3-L1 adipocytes [5] = assay: Cytotoxicity of LPC concentration used on 3T3-L1 adipocytes; type: cell-based; details: 20 μM LPC
# IRS1 and AKT = IRS1 and AKT phosphorylation in 3T3-L1 adipocytes (immunoblot); type: cell-based; details: LPC treatment of 3T3-L1 adipocytes
# Procedure: Immunoblotting. For preparing total cell lysates, 3T3-L1 adipocytes were washed with Ca^2+/Mg^2+-free PBS and then lysed in the lysis buffer (50 mM HEPES, pH 7.2, 150 mM NaCl, 50 mM NaF, 1 mM Na3VO4, 10% glycerol, 1% Triton X-100). The lysates were centrifuged at 15,000 rpm for 15 min at 4° C. The proteins were denatured by boiling in laemmli sample buffer for 5 min at 95° C., separated by SDS-PAGE. SDS-gel was transferred to nitrocellulose membrane using Hoefer wet transfer system. Membranes were blocked in TTBS (20 mM Tris-HCl, pH 7.6, 150 mM NaCl, 0.05% Tween 20) containing 5% skimmed milk powder for 30 min and then incubated with antibodies for 3 hours. After washing membranes several times with TTBS, the blots were incubated with HRP (Horseradish peroxidase)-conjugated goat anti-rabbit for 1 hour. The blots were washed with TTBS and developed by ECL.
# [6] = 3T3-L1 adipocytes, 10 min incubation
compound,measurement,setting,value
"CCCCCCCCCCCCCCCC(=O)OC[C@@H](O)COP(=O)([O-])OCC[N+](C)(C)C [LPC, palmytoyl lysophosphatidylcholine]",blood glucose concentrations in STZ-treated insulin deficient mice,[1],significantly reduced blood glucose concentrations
same,rate of glucose uptake in C2C12 muscle cells,C2C12 muscle cells,increased the rate of glucose uptake in a dose dependent manner
same,change in blood insulin levels,male ICR mice [2],not due to changes in blood insulin levels
same,PM content of GLUT4 proteins,GLUT4,180 % of basal
same,incubation time at which glucose uptake was maximally increased,"3T3-L1 adipocytes [3]; 20 μM, 0 to 20 min",10 min
same,concentration of initial statistically significant effect on glucose uptake,3T3-L1 adipocytes [3]; [6],1 µM
same,concentration of maximal effect on glucose uptake,3T3-L1 adipocytes [3]; [6],20 µM
same,time and dose dependence of glucose uptake,"3T3-L1 adipocytes [3]; 3T3-L1 adipocytes, various concentrations",time- and dose-dependent increase in glucose uptake
same,stimulation of glucose uptake,3T3-L1 adipocytes [3],specifically stimulated glucose uptake
same,stimulation of glucose uptake,3T3-L1 adipocytes [3]; listed as palmytoyl LPC,stimulated glucose uptake
same,time to statistically significant fall in blood glucose,male ICR mice [4]; 15 or 30 μmol/kg i.v.,≤ 30 min
same,blood glucose levels in ICR mice,"male ICR mice [4]; 15 or 30 μmol/kg i.v., acute",statistically significant fall in blood glucose levels
same,"blood glucose lowering, comparison of lysophospholipid species","male ICR mice [4]; doses equimolar to 30 μmol/kg i.v., ICR mice",significant effect on the blood glucose lowering
same,blood glucose in insulin-resistant obese db/db mice,C57BLKSJ-db/db mice,dropped to near normal levels
same,cytotoxicity,3T3-L1 adipocytes [5],not cytotoxic
same,phosphorylation of IRS1 and AKT,IRS1 and AKT,had no effects on phosphorylation of IRS1 and AKT
